This is an account of results in patent publication US6409995B1, “Use of amino-substituted hydroxybenzophenones as photostable UV filters in cosmetic and pharmaceutical preparations” (BASF Aktiengesellschaft, priority 1999, dated 2002).

Series [1] is described as follows: UV absorption of the compounds (absorption maximum and specific absorbance). The series is classed as physicochemical. Particulars: for λmax: UV absorption maximum; for E^11: specific absorbance at λmax.
For series [2] the following is noted: used alone or in combination with UV-B filters; cited from earlier work.

`CCN(CC)c1ccc(C(=O)c2ccccc2)c(O)c1` [Example 2, 4-diethylamino-2-hydroxyphenyl phenyl ketone] displayed a melting point of 46 to 48 °C. In series [1], the λmax was determined as 359 nm and the “E^11” value is listed as 1280.
As to `CCN(CC)c1ccc(C(=O)c2ccccc2C(=O)OC)c(O)c1` [Example 1, Methyl 2-(4-diethylamino-2-hydroxybenzoyl)benzoate], in series [1], the λmax stood at 354 nm and the “E^11” value came to 1173.
Molecule `COC(=O)c1ccccc1C(=O)c1ccc(N2CCCC2)cc1O` [Example 4] registered a melting point of 164 °C. In series [1], the λmax turned out to be 355 nm and the “E^11” value was 1179.
On to `COc1ccc(C(=O)CC(=O)c2ccc(C(C)(C)C)cc2)cc1` [PARSOL 1789, 4-(1,1-dimethylethyl)-4′-methoxydibenzoylmethane], for which the photochemical stability result in series [2] is given as “does not have sufficient photochemical stability”.
For `O=C(O)c1ccccc1C(=O)c1ccc(N2CCCC2)cc1O` [Example 3], the melting point came to 203 °C. In series [1], the λmax turned out to be 355 nm and the “E^11” value is on record as 1167.
